Results reported in patent publication US11098062B2, “Monocyclic and bicyclic ring system substituted carbanucleoside analogues for use as PRMT5 inhibitors” (Janssen Pharmaceutica NV, priority 2016, dated 2021).

What was measured:
[1] = system: nuclear symmetric Arginine dimethylation in A549 cells; assay: PD assay (assay 2): inhibition of nuclear symmetric Arginine dimethylation (SYM10 immunostaining) in A549 cells; format: cell-based; conditions: Homo sapiens, 48 h incubation, SYM10 antibody, averaged values, read-out: pIC50 Assay 2 (converted)
Experimental: Experimental Procedure PD Assay (Assay 2)
A549 cells (ATCC, Cat #CCL-185) were cultured in Dulbecco's Modified Eagle's Medium (DMEM) (Sigma, Cat #D5796), supplemented with 10% Fetal Calf Serum (FCS) (HyClone™, Cat #SV30160.03), 100 mM Sodium Pyruvate (Sigma, Cat #S8636), 200 mM L-Glutamine (Sigma, Cat #G7513) and 50 mg/mL Gentamycing (Gibco, Cat #15750-037).
Reagents used for buffers were purchased: Dulbecco's phosphate buffered saline (DPBS) without Ca/Mg (Sigma, Cat #D8537), phosphate buffered saline (PBS) 10× (Roche, Cat #11 666 789 001), Formalin solution 10% (Sigma, HT50-1-128-4L), Methanol 100% (Sigma, Cat #32213-2.5L), Triton X-100 (Acros, Cat #215680010), Bovine Serum Albumin (BSA) (Sigma, Cat #A2153), Alexa fluor 488 goat anti-rabbit antibody (Life Technologies, Cat #A11034), HCS CellMask Deep Red Stain (Life Technologies, Cat #H32721), Hoechst Stain (Life Technologies, Cat #33258), Anti-dimethyl-Arginine, sym (SYM10) antibody (Millipore, 07-412).
Cells were plated at 400 cells/40 μL/well in 384 well black μplates clear bottom (Perkin Elmer) and overnight incubated at 37° C., 5% CO2. The IC50 Studies were performed using nine point dosing series ranging from 10 μM to […] for each compound. 80 nL of the respective dilution of the compounds was added using the Labcyte POD 810 (Labcyte) reaching a final DMSO concentration of 0.2% in cell culture. After an incubation period of 48 h at 37° C. and 5% CO2, cells were fixed in 10% formalin solution for 15 min at room temperature and 20 min in ice-cold methanol, after which they were washed 3× in DPBS. Subsequently, the cells were blocked for 1 h in blocking buffer (PBS+1% BSA and 0.5% Triton X-100) and incubated overnight at 4° C. with the SYM10 antibody diluted 1/2000 in blocking buffer. The cells were washed 3× with washing buffer (PBS+0.1% Triton X-100) and incubated with the Alexa fluor 488 goat anti-rabbit antibody diluted 1/200 in blocking buffer for 1 h at room temperature. Subsequently, they were washed 3× with washing buffer and incubated for 30 min at room temperature with PBS containing a 1/5000 dilution of Hoechst Stain and a 1/5000 dilution of the HCS CellMask Deep Red Stain. After a final wash with PBS, the plates were imaged using the 10×W lens of the Opera® system (Perkin Elmer Life Sciences) using following settings (values in nm):
Low control: minimum level of symmetrically dimethylated Arginines (cells treated with reference compound at 10 μM).
High control: maximum level of symmetrically dimethylated Arginines (DMSO treated cells).
IC50 and pIC50 (−log IC50) values were calculated using the appropriate software.
The pIC50 values in the Table below are averaged values (Co. No. means compound number; n.d. means not determined).

[2] = biological target: T1, PRMT5-MEP50 enzyme (Homo sapiens, UniProt O14744); assay: In vitro assay 1a: PRMT5-MEP50 high throughput mass spectrometer assay (SAH formation), 10 nM enzyme; format: biochemical; conditions: 1 μM SAM, 0.3 μM H2A, 30° C., 60 min, averaged values, read-out: pIC50 Assay 1a (converted)
T1 construct: One virus expresses full length human PRMT5 with Flag-tag at N-terminus; Flag (N); purchased Charles River (Argenta); host or cells: insect cells (Sf9), baculovirus co-infection
Excerpt: (§1) Experimental Procedures In Vitro Assay (Assay 1a and 1b)
(§2) PRMT5-MEP50 enzyme was purchased from Charles River (Argenta). The enzyme complex was produced in insect cells (Sf9) infected simultaneously with two baculoviruses. One virus expresses full length human PRMT5 with Flag-tag at N-terminus, the second virus expresses full length MEP50 with His6-TEV cleavage at N-terminus. The protein was affinity purified using anti-Flag (M2) beads eluted with 3×FLAG peptide, followed by His-Select eluted with 0.5M imidazole. Eluted protein was then dialysed against tris-buffered saline (TBS) (pH 8.0) containing 20% glycerol and 3 mM dithiothreitol (DTT).
(§3) Full-length untagged human recombinant histone H2A (residues 1-130, Genbank Accession #NM_021052, MW=14.1 kDa) expressed in E. coli was purchased from Reaction Biology Corporation, Cat #HMT-11-146. Reagents used for making reaction buffer or stopping reaction were purchased including Tris base (Sigma Cat #T-1503), NaCl (Sigma Cat #RGF-3270), MgCl2 (Sigma Cat #M0250), DTT (Invitrogen Cat #15508-013) and Formic Acid (Riedel deHaen, Cat #33015)
(§4) PRMT5 catalyzes the sequential methylations of the terminal nitrogen atoms on the guanidine groups of arginine residues within proteins using co-substrate S-adenosyl-L-methionine (AdoMet, SAM), forming mono-methyl (MMA), syrmmetric-dimethyl arginine (sDMA) and S-adenosyl-L-homocysteine (AdoHcy, SAH). The enzyme activity was determined by following the product SAH formation using high throughput mass spectrometry (Agilent Rapidfire 300 System coupled to a Sciex 4000 series QTrap® triple-quad MS/MS). The reaction buffer was 20 mM Tris-HCl, pH 8.5, 50 mM NaCl, 5 mM MgCl2 and 1 mM DTT. The reaction activity was stopped using 1% formic acid (final concentration).
(§5) The IC50 Studies were performed using eleven point dosing series made for each compound by serially diluted 1:2 in dimethyl sulfoxide (DMSO), with point 12 being a DMSO control. Compounds were first spotted to plates, and followed by addition of 2 μM SAM and 0.6 μM H2A (histone H2A) solution mixture. The same volume of enzyme solution was added to initiate the enzymatic reactions. The final concentrations of the reaction are at 1 μM SAM, 0.3 μM H2A and 10 nM enzyme (assay 1a) or or 1.25 nM enzyme (assay 1b). The reaction was incubated at 30° C. for 60 minutes (min) when 10 nM enzyme was used and for 120 min when 1.25 nM enzyme was used. Subsequently, the reaction was quenched by addition of formic acid to a final concentration of 1%. The inhibitions of SAH formation in the presence of compounds were calculated as a percentage of the control relative to the uninhibited reaction as a function of inhibitor concentration. The data were fit as follows: Y=Bottom+(Top−Bottom)/(1+10^((log IC50−X)*h))
(§6) where IC50 is the inhibitor concentration (same unit as X) at 50% inhibition and h is the Hill slope. Y is percent of inhibition, X is log of compound concentration. Bottom and Top are the plateaus in same units as Y.

[3] = biological target: T1, PRMT5-MEP50 enzyme; assay: In vitro assay 1b: PRMT5-MEP50 high throughput mass spectrometer assay (SAH formation), 1.25 nM enzyme; format: biochemical
Excerpt: as §1, §2, §3, §4, §5, §6

[4] = 1.25 nM enzyme, 1 μM SAM, 0.3 μM H2A, 30° C., 120 min, averaged values, read-out: pIC50 Assay 1b (converted)

T1 sequence (O14744 whole entry): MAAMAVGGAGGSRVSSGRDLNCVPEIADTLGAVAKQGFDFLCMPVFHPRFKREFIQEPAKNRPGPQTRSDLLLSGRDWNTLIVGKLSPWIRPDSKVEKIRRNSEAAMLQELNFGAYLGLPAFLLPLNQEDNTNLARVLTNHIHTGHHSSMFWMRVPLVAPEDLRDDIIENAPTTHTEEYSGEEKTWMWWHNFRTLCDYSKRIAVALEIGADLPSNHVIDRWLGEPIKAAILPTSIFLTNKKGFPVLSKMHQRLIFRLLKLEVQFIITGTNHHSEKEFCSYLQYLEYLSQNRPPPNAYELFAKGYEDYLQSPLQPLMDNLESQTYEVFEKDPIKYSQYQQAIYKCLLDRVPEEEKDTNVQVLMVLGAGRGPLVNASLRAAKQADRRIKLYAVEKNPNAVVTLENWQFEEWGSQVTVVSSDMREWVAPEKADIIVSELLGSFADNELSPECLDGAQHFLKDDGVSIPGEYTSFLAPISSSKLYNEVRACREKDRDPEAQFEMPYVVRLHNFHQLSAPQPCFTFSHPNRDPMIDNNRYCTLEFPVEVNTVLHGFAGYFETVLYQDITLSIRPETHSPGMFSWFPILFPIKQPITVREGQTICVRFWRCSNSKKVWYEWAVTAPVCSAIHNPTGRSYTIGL
T1 sequence (Q9BQA1 whole entry partner): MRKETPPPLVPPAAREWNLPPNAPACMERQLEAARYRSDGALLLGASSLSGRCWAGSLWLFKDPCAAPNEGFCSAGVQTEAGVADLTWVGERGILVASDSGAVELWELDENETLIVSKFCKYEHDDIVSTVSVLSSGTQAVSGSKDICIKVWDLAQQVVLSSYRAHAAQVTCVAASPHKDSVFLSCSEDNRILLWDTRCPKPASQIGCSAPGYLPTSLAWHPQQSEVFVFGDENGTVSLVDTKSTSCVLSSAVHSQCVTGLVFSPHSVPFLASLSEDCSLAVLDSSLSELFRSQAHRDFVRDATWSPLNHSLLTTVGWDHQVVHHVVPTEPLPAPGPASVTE

Row | SMILES | IC50 [1] | IC50 [2] | IC50 [3, 4] | IC50 [3]
1 | Cc1cnc2cc(CC[C@H]3C[C@@H](n4ccc5c(N)ncnc54)[C@H](O)[C@@H]3O)ccn12 [Compound 1] | 1.26 nM | 0.794 nM | – | –
2 | Cc1cnc2cc(CC[C@H]3C[C@@H](n4ccc5c(N)ncnc54)[C@H](O)[C@@H]3O)c(Cl)cn12 [Compound 2] | 6.31 nM | – | 0.158 nM | –
3 | Nc1ncnc2c1ccn2[C@@H]1C[C@H](CCc2ccn3ccnc3c2)[C@@H](O)[C@H]1O [Compound 3] | 20 nM | 2 nM | – | –
4 | Nc1nc2cc(CC[C@H]3C[C@@H](n4ccc5c(Cl)ncnc54)[C@H](O)[C@@H]3O)ccc2s1 [Compound 5] | 3980 nM | 12.6 nM | – | –
5 | Nc1nc2cc(CC[C@H]3C[C@@H](n4ccc5c(N)ncnc54)[C@H](O)[C@@H]3O)ccc2s1 [Compound 6] | 15.8 nM | 2 nM | – | –
6 | CNc1nc2cc(CC[C@H]3C[C@@H](n4ccc5c(N)ncnc54)[C@H](O)[C@@H]3O)ccc2s1 [Compound 7] | 25.1 nM | 6.31 nM | – | –
7 | Nc1ncnc2c1ccn2[C@@H]1C[C@H](CCc2ccn3c(C4CC4)cnc3c2)[C@@H](O)[C@H]1O [Compound 8] | 25.1 nM | – | 2.51 nM | –
8 | CNc1ncnc2c1ccn2[C@@H]1C[C@H](CCc2ccn3c(C)cnc3c2)[C@@H](O)[C@H]1O [Compound 9] | 63.1 nM | – | 3.98 nM | –
9 | COc1ncnc2c1ccn2[C@@H]1C[C@H](CCc2ccn3c(C)cnc3c2)[C@@H](O)[C@H]1O [Compound 10] | 200 nM | – | 10 nM | –
10 | Cc1nc2cc(CC[C@H]3C[C@@H](n4ccc5c(N)ncnc54)[C@H](O)[C@@H]3O)ccn2c1C [Compound 11] | 3.98 nM | – | – | < 0.2 nM
11 | Cc1cnc2cc(CC[C@H]3C[C@@H](n4ccc5c(N)ncnc54)[C@H](O)[C@@H]3O)c(F)cn12 [Compound 12] | 2 nM | – | 0.316 nM | –
12 | Cc1cnc2cc(CC[C@H]3C[C@@H](n4cc(Br)c5c(N)ncnc54)[C@H](O)[C@@H]3O)ccn12 [Compound 15] | 6.31 nM | – | 1 nM | –
13 | Nc1ncnc2c1ccn2[C@@H]1C[C@H](CCc2cc3ncccc3s2)[C@@H](O)[C@H]1O [Compound 18] | 126 nM | 39.8 nM | – | –
14 | Cc1cnc2c(Cl)c(CC[C@H]3C[C@@H](n4ccc5c(N)ncnc54)[C@H](O)[C@@H]3O)ccn12 [Compound 21] | 15.8 nM | – | 3.98 nM | –
15 | Nc1ccc(CC[C@H]2C[C@@H](n3ccc4c(N)ncnc43)[C@H](O)[C@@H]2O)cn1 [Compound 27] | 6.31 nM | – | – | 5.01 nM
16 | Nc1cccc(CC[C@H]2C[C@@H](n3ccc4c(N)ncnc43)[C@H](O)[C@@H]2O)n1 [Compound 28] | 631 nM | – | 158 nM | –
17 | Nc1ccc(/C=C/[C@H]2C[C@@H](n3ccc4c(N)ncnc43)[C@H](O)[C@@H]2O)cn1 [Compound 30] | 501 nM | – | 63.1 nM | –
18 | Nc1ncnc2c1ccn2[C@@H]1C[C@H](CCCCc2ccncc2)[C@@H](O)[C@H]1O [Compound 63] | – | – | 2000 nM | –
19 | Nc1ccc2cccc(CCCC[C@H]3C[C@@H](n4ccc5c(N)ncnc54)[C@H](O)[C@@H]3O)c2n1 [Compound 65] | – | – | 10 nM | –
20 | Nc1ncc(CC[C@H]2C[C@@H](n3ccc4c(N)ncnc43)[C@H](O)[C@@H]2O)cn1 [Compound 69] | – | – | 2000 nM | –
21 | Nc1ncnc2c1ccn2[C@@H]1C[C@H](CCc2cnc3c(c2)CCN3)[C@@H](O)[C@H]1O [Compound 73] | – | – | 25.1 nM | –
22 | Nc1ncnc2c1ccn2[C@@H]1C[C@H](Cn2ccc3ccncc32)[C@@H](O)[C@H]1O [Compound 75] | – | – | 251 nM | –

Continued, in another order:

Row | IC50 [1] | IC50 [2] | IC50 [3, 4] | SMILES | IC50 [3]
23 | 31.6 nM | 12.6 nM | – | Cn1cnc2cc(CC[C@H]3C[C@@H](n4ccc5c(N)ncnc54)[C@H](O)[C@@H]3O)ccc21 [Compound 4] | –
24 | 1000 nM | 39.8 nM | – | Nc1ncnc2c1ccn2[C@@H]1C[C@H](CCc2cc3ncccc3[nH]2)[C@@H](O)[C@H]1O [Compound 17] | –
25 | 5010 nM | 1260 nM | – | Nc1ncnc2c1ccn2[C@@H]1C[C@H](CCc2cc3ncccc3o2)[C@@H](O)[C@H]1O [Compound 19] | –
26 | 1580 nM | 31.6 nM | – | Nc1ncnc2c1ccn2[C@@H]1C[C@H](COc2ccn3ccnc3c2)[C@@H](O)[C@H]1O [Compound 24] | –
27 | 2000 nM | – | 398 nM | Nc1cc(CC[C@H]2C[C@@H](n3ccc4c(N)ncnc43)[C@H](O)[C@@H]2O)ccn1 [Compound 29] | –
28 | – | – | 794 nM | Nc1ncnc2c1ccn2[C@@H]1C[C@H](CCCCc2cnc3ccccc3c2)[C@@H](O)[C@H]1O [Compound 62] | –
29 | – | – | 100 nM | Nc1ncnc2c1ccn2[C@@H]1C[C@H](CCCCc2ccccn2)[C@@H](O)[C@H]1O [Compound 64] | –
30 | – | – | 39.8 nM | Nc1ncnc2c1ccn2[C@@H]1C[C@H](CCCCc2cccc3ccncc23)[C@@H](O)[C@H]1O [Compound 66] | –
31 | – | – | 501 nM | Nc1ncnc2c1ccn2[C@@H]1C[C@H](CCc2cccnc2)[C@@H](O)[C@H]1O [Compound 67] | –
32 | – | – | 1260 nM | Nc1ncnc2c1ccn2[C@@H]1C[C@H](CCc2cn[nH]c2)[C@@H](O)[C@H]1O [Compound 68] | –
33 | – | – | 501 nM | Nc1ncnc2c1ccn2[C@@H]1C[C@H](CCc2cnc(Nc3ccc(Cl)cc3)nc2)[C@@H](O)[C@H]1O [Compound 70] | –
34 | – | – | 100 nM | Nc1ncnc2c1ccn2[C@@H]1C[C@H](CCC2=CC3=NC(=O)CN3C=C2)[C@@H](O)[C@H]1O [Compound 71] | –
35 | – | – | 12.6 nM | Nc1ncnc2c1ccn2[C@@H]1C[C@H](CCc2cnc3c(c2)OCCN3)[C@@H](O)[C@H]1O [Compound 72] | –
